Results on one molecule are retold here after PMC6197257 (Scientific Reports, 2018).

Read-outs that look alike come from different tables or passages of the source.

Data set [1] can be described thus: concentrations in pooled plasma of EHBRs 12 h after oral GA (200 mg/kg). The note with it: Eisai Hyperbilirubinemia rats (EHBR), rat. It counts as in vivo. The protocol: Three female and three male EHBRs (9-week-old, respectively) were injected with urethane (1 g/kg, i.p.), and orally treated with an aqueous GA aqueous suspension (200 mg/kg in 1% CMC). Twelve h after the treatment, blood was collected from the abdominal vena cava, and the plasma samples of each sex rat were pooled.
LC-ESI(+)MS/MS analysis was conducted at the following conditions: column, Scherzo SM-C18 (3 μm, 3 mm i.d. ×100 mm, Imtakt, Kyoto, Japan); mobile phase, (A) 5 mM AcNH4, (B) 125 mM AcNH4/acetonitrole 1:4, at a flow rate of 0.3 ml/min, with the following gradient profile: A:B = 50:50–0:100 (0–3 min) and 0:100 (3–10 min); compound 1 (5.8 min), astragaloside IV (3.0 min), GA (8.7 min); the transitions monitored were the same as described in the previous section. Linear regressions over the concentration range 0.08–2 µM for compound 1 and 3.2 nM–2 µM for GA were examined using the peak-area ratio of the compounds to their internal standards and the least-squares method (r^2 > 0.98).

Data set [2] has as its system rat kidney slices. The experiment in a line: uptake by rat kidney slices. It counts as in vitro ADME. The note with it: pooled plasma of female EHBRs, pH 5.5, 2 h. The protocol: Female SD rats (9-week-old) were treated with urethane (1 g/kg, i.p.), and their kidneys were collected. After removal of the capsule, the kidneys were sliced at approximately 0.5-mm thickness in the frontal section of the organ, using a tissue slicer (Natsume Seisakusyo, Tokyo, Japan) and then cut at the renal hilus into two halves. The slices were pre-incubated at either 4 or 37 °C for 15 min in 24-well plates with 0.3 ml of the incubation medium (137 mM NaCl, 5.4 mM KCl, 0.95 mM CaCl2, 0.81 mM MgSO4, 0.44 mM KH2PO4, 0.25 mM Na2HPO4, 5.5 mM glucose, 10 mM MES, adjusted to pH 5.5). Five ml of pooled female EHBR plasma samples was lyophilized, and dissolved in 5 ml of the incubation medium. […] After washing with PBS three times, the kidney slices were homogenated in PBS using sonication, and the concentrations of protein were measured as mentioned above. […]
LC-ESI(+)MS/MS analysis was conducted at the following conditions: column, Scherzo SM-C18 (3 μm, 3 mm i.d. ×100 mm, Imtakt, Kyoto, Japan); mobile phase, (A) 5 mM AcNH4, (B) 125 mM AcNH4/acetonitrole 1:4, at a flow rate of 0.3 ml/min, with the following gradient profile: A:B = 50:50–0:100 (0–3 min) and 0:100 (3–10 min); compound 1 (5.8 min), astragaloside IV (3.0 min), GA (8.7 min); the transitions monitored were the same as described in the previous section. […]

The target of data set [3] is T1, OAT3 (Homo sapiens, UniProt Q8TCC7).
T1 construct: expressed in transfected cells
T1 sequence (Q8TCC7 1-542): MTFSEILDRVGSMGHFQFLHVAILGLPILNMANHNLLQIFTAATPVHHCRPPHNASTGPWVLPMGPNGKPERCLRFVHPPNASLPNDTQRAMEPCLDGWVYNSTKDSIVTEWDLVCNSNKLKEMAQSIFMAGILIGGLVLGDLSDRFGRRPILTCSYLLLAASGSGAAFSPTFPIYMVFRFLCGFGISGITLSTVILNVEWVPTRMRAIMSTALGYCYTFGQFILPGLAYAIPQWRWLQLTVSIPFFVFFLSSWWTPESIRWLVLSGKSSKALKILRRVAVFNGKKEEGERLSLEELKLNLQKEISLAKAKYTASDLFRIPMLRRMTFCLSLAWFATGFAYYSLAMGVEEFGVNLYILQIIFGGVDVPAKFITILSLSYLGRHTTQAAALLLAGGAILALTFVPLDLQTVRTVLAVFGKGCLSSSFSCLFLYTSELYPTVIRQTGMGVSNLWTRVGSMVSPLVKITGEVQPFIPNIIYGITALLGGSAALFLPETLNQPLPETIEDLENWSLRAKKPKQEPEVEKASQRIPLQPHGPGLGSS
The experiment in a line: uptake by MDCK II cells stably expressing OAT3. The following applies: pooled plasma of male EHBRs (79 µM compound 1), pH 5.5, 37 °C, 15 min. The data set is classed as in vitro ADME. The method, then:
MDCKII cells were cultured in Dulbecco’s modified Eagle’s medium containing 10% FBS, 100 U/ml penicillin, and 100 µg/ml streptomycin at 37 °C in 5% CO2. Plasmids carrying the cDNAs encoding human organic anion transporter (OAT) 1 and 3 were prepared using the pCI-neo mammalian expression vector, as described previously. Using the plasmids, MDCKII cells stably expressing OAT1 and 3 were prepared as described previously, and tested for their functional expressions by evaluating the transports of [^3H]p-aminohippurate and [^3H]estrone sulfate, respectively, as probe substrates.
For the transport assay, the cells were seeded in 24-well plates (1 × 10^5 cells/well), and incubated for 24 h. The cells were pre-incubated for 15 min at 37 °C with 0.25 ml of the incubation medium described above. Two ml of pooled female or male EHBR plasma samples was lyophilized, and dissolved in 2 ml of 10 mM MES (pH 5.5). The cells were then incubated further at 37 °C for 15 min with 0.1 ml of pooled female or male EHBR plasma samples. The surface of the cells was washed 3 times with 0.5 ml of ice-cold PBS, and then the contents were extracted with 0.2 ml of ethanol. The cell residues were dissolved by 0.1 ml of 1 M NaOH, and after neutralization by adding 0.1 ml of 1 M HCl, the concentrations of protein were measured as mentioned above.

Take `CC1(C(=O)OC2OC(C(=O)O)C(O)C(O)C2O)CC(O)C2(C)CCC3(C)C(=CC(=O)C4C5(C)CCC(OS(=O)(=O)O)C(C)(C)C5CCC43C)C2C1` (stereo not drawn) [Compound 1, 22α-hydroxy-18β-glycyrrhetyl-3-O-sulfate-30-glucuronide]: the concentration at 12 h in data set [1] (female, read-out: concentration in pooled plasma, female EHBRs) came out at 15 µM; in data set [1] (male, read-out: concentration in pooled plasma, male EHBRs) it was 79 µM. Also, the “uptake by kidney slices at 37 °C compared with 4 °C” value in data set [2] is listed as “significantly higher”. Further, the “uptake by cells expressing OAT3 compared with mock cells” value in data set [3] is “higher than that by mock cells”.
